Consider three compounds from article PMC3944805, “Reinterpreting the Mechanism of Inhibition of Mycobacterium tuberculosisD-Alanine:D-Alanine Ligase by D-Cycloserine” (Biochemistry, 2013).

The target in data set [1] is T1, Mycobacterium tuberculosis Ddl (MtDdl) (Mycobacterium tuberculosis, UniProt P9WP31).
T1 construct: hexahistidine tag; made in house
Kind of data set: Slow-onset inhibition of MtDdl by stopped-flow coupled enzyme time courses. It is filed as biochemical. Particulars: for koff: read-out: k–2 (DCS dissociation rate constant). The method, then:
(§1) Steady-state kinetics and equilibrium binding were performed as previously described.[4] Time courses for the measurement of slow-onset inhibition were collected on an SX20 stopped-flow spectrometer (Applied Photophysics) at 37 °C, using a 10 mm path-length cell. Data points were recorded every 0.1 s. Catalysis was detected by the same coupled enzyme mechanism as used previously for steady-state kinetic measurements.[4] All reaction mixtures contained 50 mM HEPES (pH 7.3), 10 mM MgCl2, 80 mM KCl, 3 mM ATP, 0.25 mM NADH, 1.5 mM PEP, and a 40 μL/mL pyruvate kinase/lactate dehydrogenase enzyme solution (PK-LDH; stock solution of 600–1000 units/mL PK and 900–1400 units/mL LDH). MtDdl was employed at concentrations from 60 to 290 nM and EcDdl at a final concentration of 30 nM. DCS and D-Ala concentrations were varied as required. Reaction components were sorted into two syringes, with rapid mixing of 60 μL from each starting each reaction. For all assays, both syringes contained HEPES, MgCl2, KCl, NADH, PEP, and PK-LDH. MtDdl and D-Ala were always stored in separate syringes. For analysis of slow-onset inhibition at the C-terminal D-Ala binding site (i.e., data for Figure 1), DCS and Mt/EcDdl were stored in separate reaction mixtures prior to the commencement of the reaction. For analysis of slow-onset inhibition at the N-terminal D-Ala site (i.e., data for Figure 2), MtDdl and DCS (with or without ATP) were stored in the same reaction mixture (for at least 4 min) prior to the commencement of the reaction.
(§2) Individual time course data were fit using eq 1 [drawing 1] 1 where [P]t is the product formed at time t, [E] is the total MtDdl concentration, vi is the initial rate, vf is the final (steady-state) rate, and kobs is the apparent rate constant for approach to the steady state.[7] Time courses were performed in triplicate and kobs values averaged for each DCS and D-Ala concentration tested. Secondary replots of kobs versus DCS concentration were fit using eq 2 [drawing 2] 2 where [I] is the DCS concentration, [S] is the D-Ala concentration, and k2 and k–2 are rate constants as described in Scheme 2. The Km value was that for the C-terminal site (4 mM), as previously reported.[4]

Data set [2] concerns the target T1, Mycobacterium tuberculosis Ddl (MtDdl). Particulars: cited from earlier work.
Data set [3] has as its target T2, Escherichia coli DdlB (EcDdl) (Escherichia coli, UniProt P07862). The data set is described as follows: Slow-onset inhibition of EcDdl by stopped-flow coupled enzyme time courses. It is filed as biochemical. More on the design: hexahistidine tag (from pET28a+) (N); made in house; host or cells: E. coli BL21. The method, then: as §1, §2
The target in data set [4] is T2, Escherichia coli DdlB (EcDdl). Kind of data set: Steady-state kinetics of EcDdl.
Protocol: (§3) Time courses for the measurement of slow-onset inhibition were collected on an SX20 stopped-flow spectrometer (Applied Photophysics) at 37 °C, using a 10 mm path-length cell. Data points were recorded every 0.1 s. Catalysis was detected by the same coupled enzyme mechanism as used previously for steady-state kinetic measurements.[4] All reaction mixtures contained 50 mM HEPES (pH 7.3), 10 mM MgCl2, 80 mM KCl, 3 mM ATP, 0.25 mM NADH, 1.5 mM PEP, and a 40 μL/mL pyruvate kinase/lactate dehydrogenase enzyme solution (PK-LDH; stock solution of 600–1000 units/mL PK and 900–1400 units/mL LDH). MtDdl was employed at concentrations from 60 to 290 nM and EcDdl at a final concentration of 30 nM. DCS and D-Ala concentrations were varied as required. Reaction components were sorted into two syringes, with rapid mixing of 60 μL from each starting each reaction. For all assays, both syringes contained HEPES, MgCl2, KCl, NADH, PEP, and PK-LDH. MtDdl and D-Ala were always stored in separate syringes. For analysis of slow-onset inhibition at the C-terminal D-Ala binding site (i.e., data for Figure 1), DCS and Mt/EcDdl were stored in separate reaction mixtures prior to the commencement of the reaction. […]
Data set [5] has the same target. More on the design: hexahistidine tag (from pET28a+) (N); made in house; host or cells: E. coli BL21; method as in Zawadzke et al., 1991. To be noted: EcDdlB, previously published value in parentheses, ref Zawadzke et al., 1991, cited from earlier work.
For the next data set, the system named is MtDdl. Kind of data set: Theoretical calculation of dissociative t1/2 for MtDdl:ATP:D-Ala1:D-Ala2 complex. More on the design: species or system Mycobacterium tuberculosis. Particulars: theoretical calculations. The text has this:
Supporting Information to:
Reinterpreting the mechanism of inhibition of Mycobacterium tuberculosis D-Alanine:D-Alanine ligase by D-Cycloserine.
Gareth Prosser and Luiz Pedro S. de Carvalho.
Division of Mycobacterial Research, MRC National Institute for Medical Research, The Ridgeway, […]
Table S1. Steady-state kinetic parameters for MtDdl and EcDdl. […]
aReaction conditions for both enzymes were as previously reported.1 bValues for MtDdl taken from our previous work.1 cValues in parentheses are previously published values.2
Theoretical calculation of dissociative t1/2 for MtDdl:ATP:D-Ala1:D-Ala2 complex […]
k = diffusion-rate limited = 1 × 1010 M-1.s-1
Figure S1. Comparison of dissociative half-lives (t1/2) of MtDdl:ATP:D-Ala:DCS and MtDdl:ATP:D-Ala-D-Ala complexes. Half-life for DCS-containing complex was measured experimentally as described in the main paper. Half-life for D-Ala-only-containing complex was calculated theoretically as described […]
(1 picture or pasted object on this page, not shown here)

In the next data set the test system is C[C@@H](N)C(=O)O. The data set is described as follows: purified protein, by the assay type. To be noted: other: EcDdlB; pH 7.3; 37.0 °C.
The mark [6] stands for this setting: MtDdl preincubated with ATP with DCS, MtDdl–ATP complex, 40 mM D-Ala, 3 mM ATP.
Setting [7] is: MtDdl preincubated with ATP, C-terminal D-Ala site, averaged over 0.4 to 40 mM D-Ala, 37 °C, pH 7.3.
[8] abbreviates: EcDdl preincubated with ATP, only 0.75 mM D-Ala tested.

Like-named read-outs stand apart in the source and are kept apart here. Some results are limits rather than exact numbers.

T1 sequence (P9WP31 whole entry): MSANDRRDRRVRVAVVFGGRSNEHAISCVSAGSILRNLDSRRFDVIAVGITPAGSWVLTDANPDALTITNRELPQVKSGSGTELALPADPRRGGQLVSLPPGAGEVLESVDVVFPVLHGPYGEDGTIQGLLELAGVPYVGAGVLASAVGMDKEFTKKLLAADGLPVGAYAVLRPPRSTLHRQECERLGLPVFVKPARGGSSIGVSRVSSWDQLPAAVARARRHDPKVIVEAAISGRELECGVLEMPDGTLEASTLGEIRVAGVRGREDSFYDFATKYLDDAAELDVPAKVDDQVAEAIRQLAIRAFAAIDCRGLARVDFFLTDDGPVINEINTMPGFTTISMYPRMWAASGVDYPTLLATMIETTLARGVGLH
Protocol for C[C@@H](N)C(=O)O: as §3

Consider `N[C@@H]1CONC1=O` [DCS, (R)-4-amino-1,2-oxazolidin-3-one], for which the “t1/2 (dissociative half-life)” value in data set [1] (MtDdl preincubated with ATP with DCS, MtDdl–ATP complex) is on record as 25 s; in data set [1] (MtDdl preincubated with ATP, MtDdl:ATP:D-Ala:DCS complex) it was 48 s; in data set [3] (setting [8]), 5 s. In addition, the entries for the “k2 (DCS binding rate constant)” value in data set [1] (setting [6]), in data set [1] (setting [7]) and in data set [3] (setting [8]) were 373 ± 11 M^–1 s^–1, 888 ± 36 M^–1 s^–1 and 2970 ± 360 M^–1 s^–1, respectively. Also, the koff turned out to be 0.028 ± 0.001 s⁻¹ in data set [1] (setting [6]); 0.014 ± 0.003 s⁻¹ in data set [1] (setting [7]); 0.13 ± 0.03 s⁻¹ in data set [3] (EcDdl preincubated with ATP, only 0.75 mM D-Ala tested, read-out: k–2 (DCS dissociation rate constant)). For the same compound, the Ki in data set [2] (MtDdl–ATP–D-Ala complex, previous work, read-out: Ki,DCS2) was 25 µM; in data set [2] (previous data, read-out: Ki,DCS1), 15 µM; in data set [4], 44 ± 10 µM; in data set [5] (read-out: Ki,DCS2) it was 27 µM. Besides, the “fold faster rate of association of the enzyme–inhibitor complex (k2), EcDdl vs MtDdl” value in data set [3] (EcDdl compared with MtDdl) is over 3 fold. Besides, in data set [3] (EcDdl compared with MtDdl), the “fold faster rate of dissociation of the enzyme–inhibitor complex (k–2), EcDdl vs MtDdl” value is on record as 10 fold. Moreover, the “DCS–MtDdl complex residence time longer than that for the D-Ala–MtDdl complex” value with MtDdl is “up to 8 orders of magnitude”. Where the note is “across all pHs tested over the time frame of the experiment”, the “stability by one-dimensional NMR” value is listed as “stable”. Also, for the setting “in the presence and absence of enzyme (and other buffer components)”, the “stability by one-dimensional and 13C HSQC NMR” value is recorded as “no spectral changes”.
On to “Escherichia coli DdlB (EcDdl) (Escherichia coli K-12)”, for which, in the data set with C[C@@H](N)C(=O)O, the Km is on record as 800 ± 70 µM.
In the case of `C[C@@H](N)C(=O)O` [D-Ala, D-alanine], the Km in data set [2] (read-out: Km for the C-terminal site, value used in eq 2) was 4 mM; in data set [2] (read-out: Km,D-Ala2, C-terminal site, previous work, ref Prosser and de Carvalho, 2013), 3.6 ± 0.6 mM; in data set [5] (read-out: Km,D-Ala2), 1.2 mM.
